Source: patent US20120034608A1, “MICRORNA AS A BIOMARKER OF PANCREATIC ISLET BETA-CELL ENGAGEMENT” (Merck Sharp & Dohme Corp., priority 2009, published 2012)

Experiments:
rat pancreatic islets = test: miRNA expression in isolated rat islets (TAQMAN); type: cell-based; settings: 50 nM GLP-1, 11 mM glucose, 24 hours
Description: (§1) INS-1 832/3 and 832/13 cells were maintained in RPMI 1640 with 10% FBS and 11 mM glucose. For GLP-1 treatment, GLP-1 (7-37) amide (ABCHEM) was added in the media in the presence of 16 mM glucose for 24 hours. Total RNA was extracted with TRIZOL as in Example 1. Rat islet isolation and treatment was as follows. Pancreatic islets of Langerhans were isolated from the pancreas of normal Sprague-Dawley rats (Charles River, Ind.) by collagenase digestion and discontinuous Ficoll gradient separation (15). Islets were cultured for 2 hours in RPMI 1640 medium with 11 mM glucose for recovery from the isolation process. Then 100-200 islets were treated with 50 nM GLP-1 in the media with 11 mM glucose for 24 hours. RNA was extracted with TRIZOL as in Example 1 for quantification of microRNA species.
To verify that GLP-1 mediated miR-212 and miR-132 expression changes are of biological relevance, we analyzed their expression in freshly isolated rat islets treated with GLP-1. Pancreatic islets of Langerhans were isolated from the pancreas of normal Sprague-Dawley rats (Charles River, Ind.) by collagenase digestion and discontinuous Ficoll gradient separation. Islets were cultured for two hours in RPMI 1640 medium with 11 mM glucose for recovery from the isolation process. Then 100 to 200 islets were treated with 50 nM GLP-1 in the media with 11 mM glucose for 24 hours. RNA was extracted with TRIZOL reagent/ethanol precipitation followed by quantification of miRNA species. […] The regulation of miR-132 and miR-212 expression by GLP-1 was confirmed in rat pancreatic islets.

C57/Bl6 mice = test: plasma miRNA levels in lean mice after a single injection; type: in vivo, mouse; settings: C57/Bl6 mice (FIG. 5 legend)
Description: The plasma levels of miR-132 and miR-212 were measured in lean mice treated with an oxyntomodulin (OXM) derivative (a long-acting GLP-1 receptor agonist disclosed in Published International Application No. WO2007/100535) before and then 24-hours and 48-hours after a single injection of the OXM derivative. Groups of 16 weeks old mice were dosed with 30 mpk OXM derivative (s.c.) or vehicle (3% mannitol, 75 mM NaCl, 20 mM sodium acetate, pH 5) and approximately 50 μL blood each were collected into EDTA tubes before and 24 hours and 48 hours post-dosing. All the blood samples were immediately placed on ice and plasma were prepared within one hour and stored at −80° C. RNA extraction and TAQMAN RT-PCR analysis were as described in Example 3. 50 μL aliquots of the plasma samples were thawed on ice and 2× Denaturing Solution (Ambion) was added. To allow for normalization for sample variations, three C. elegans miRNAs, cel-miR39, cel-miR54, and cel-miR-238, were added at a final concentration of 20, 200, and 2000 fM (sequence information according to miRBase). miR132, miR-212, and miR-375 expression levels were normalized to spiked-in cel-miR39.

INS-1 832/13 cells [1] = test: glucose dependent insulin secretion (GDIS) assay in INS-1 832/13 cells; type: cell-based, rat; settings: 16 mM glucose, two-hour incubation in KRB
Source text: We overexpressed the precursors of miR-132 and miR-212 to evaluate their possible contribution to β-cell function. MicroRNA miR-375 was included as a control as it been reported to have an inhibitory effect on GDIS (Poy et al., Nature 432: 226-230 (2004)). Chemically modified Pre-miR™ miRNA precursor molecules and Anti-miR™ miRNA inhibitors were purchased from Ambion (Foster City, Calif.). miRCURY LNA™ microRNA knockdown oligonucleotides were purchased from Exiqon (Woburn, Mass.). The oligonucleotide molecules were delivered to the cells by the Nucleofector Device (Amaxa, Gaithersburg, Md.). In brief, INS-1 cells were trypsinized, centrifuged, and resuspended in 100 μl Nucleofector solution V. Then 100-500 pmole RNA oligonucleotides were transfected to 3-million cells at the concentration of 1-5 μM with the Amaxa Nucleofector Device. Scramble controls from the vendors were used with the same transfection method. After electroporation, the cells were transferred to regular culture medium and then split into replicates in 96-well plates. Insulin secretion assay or LANCE cAMP assay were performed 48 hours post electroporation.
INS-1 cell glucose dependent insulin secretion (GDIS) assay was performed as follows. The GDIS assay was performed with cells grown to near confluency in 96-well plates. Prior to the assay, cells were washed once with PBS and pre-incubated for two hours in freshly prepared Krebs-Ringer Bicarbonate (KRB) medium without glucose. The medium were then replaced with KRB with 2, 8 or 16 mM glucose or along with 10 nM GLP-1. The cells were incubated for another two hours in a CO2 incubator. The media was then removed at the end of incubation, and assayed for insulin levels by Ultra-sensitive Rat Insulin ELISA kit (ALPCO, Salem, N.H.) or insulin immunoassay by Gyrolab workstation (GYROS AB, Uppsala, Sweden). Intracellular insulin was extracted by acid ethanol method for measuring intracellular insulin content. Total protein was measured by Pierce 660 nm Protein Assay from Pierce Biotechnology, Inc. (Rockford, Ill.).

INS-1 832/13 cells [2] = test: TAQMAN analysis of miRNA expression in INS-1 832/13 cells; type: cell-based, rat; settings: 24 hours post-GLP-1 treatment
Description: as §1
Fluorogenic TAQMAN detector probes specific for miR-132 (Cat# TM457), miR-212 (Cat# TM515), miR-375 (Cat#TM564), and miR-217 (Cat#1133) were purchased from Applied Biosystems (Foster City, Calif.). […]
Relative miRNA levels for the miRNAs of interest were determined by real-time reverse transcription reaction using the ABI PRISM 7900 Sequence Detection System from Applied Biosystems (Foster City, Calif.) according to the manufacturer's protocol. […] Data were collected and analyzed with SDS v.2.2.2 software (Applied Biosystems). […]

GLP-1 (7-37) amide
miR-132 expression level increased (rat pancreatic islets): 2 fold | miR-212 expression level increased (rat pancreatic islets): 2 fold | regulation of miR-375 and miR-217 expression (rat pancreatic islets): Neither miR-375 nor miR-217 was significantly regulated | plasma levels of miR-132 (C57/Bl6 mice): increased | plasma levels of miR-212 (C57/Bl6 mice): increased | increase of insulin secretion upon treatment with GLP-1 (INS-1 832/13 cells [1]): less than 50% | increase of miR-132 expression in response to GLP-1 (INS-1 832/13 cells [2]): not observed | increase of miR-212 expression in response to GLP-1 (INS-1 832/13 cells [2]): not observed
